{"source": "patent US20080227780A1", "about": "“SOLUBLE EPOXIDE HYDROLASE INHIBITORS” (Arete Therapeutics, Inc., priority 2007, published 2008)", "data": [{"system": "soluble epoxide hydrolase (sEH)", "assay": "Fluorescent assay for soluble epoxide hydrolase (CMNPC substrate), percent inhibition at the recited concentration", "type": "biochemical", "conditions": "Inhibition Conc. 50 nM", "source_text": "(§1) Fluorescent Assay for Mouse and Human Soluble Epoxide Hydrolase Recombinant mouse sEH (MsEH) and human sEH (HsEH) were produced in a baculovirus expression system as previously reported. Grant et al., J. Biol. Chem., 268:17628-17633 (1993); Beetham et al., Arch. Biochem. Biophys., 305:197-201 (1993). The expressed proteins were purified from cell lysate by affinity chromatography. Wixtrom et al., Anal. Biochem., 169:71-80 (1988). Protein concentration was quantified using the Pierce BCA assay using bovine serum albumin as the calibrating standard. The preparations were at least 97% pure as judged by SDS-PAGE and scanning densitometry. They contained no detectable esterase or glutathione transferase activity which can interfere with the assay. The assay was also evaluated with similar results in crude cell lysates or homogenate of tissues. The IC50s for each inhibitor were determined according to the following procedure: […] Jones P. D. et al.; Analytical Biochemistry 2005; 343: pp. 66-75) Bis/Tris HCl 25 mM pH 7.0 containing 0.1 mg/mL of BSA (buffer […] at 0.25 mM in DMSO. Mother solution of enzyme in buffer A (Mouse sEH at 6 μg/mL and Human sEH at 5 μg/mL). Inhibitor dissolved in DMSO at the appropriate concentration. In a black 96 well plate, fill all the wells with 150 μL of buffer A. Add 2 μL of DMSO in well A2 and A3, and then add 2 μL of inhibitor solution in A1 and A4 through A12. Add 150 μL of buffer A in row A, then mix several time and transfer 150 μL to row B. Repeat this operation up to row H. The 150 μL removed from row H is discarded. Add 20 μL of buffer A in column 1 and 2, then add 20 μL of enzyme solution to column 3 to 12. Incubate the plate for 5 minutes in the plate reader at 30° C. During incubation prepare the working solution of substrate by mixing 3.68 mL of buffer A (4×0.920 mL) with 266 μL (2×133 μL) of substrate solution). At t=0, add 30 μL of working substrate solution with multi-channel pipette labeled “Briggs 303” and start the reading ([S]final: 5 μM). Read with ex: 330 nm (20 nm) and em: 465 nm (20 nm) every 30 second for 10 minutes. The velocities are used to analyze and calculate the IC50s. Tables 1-7 above provide the percent inhibition of the enzyme when tested at the concentration recited therein.", "units": {"% inh.": "%"}, "values": [{"smiles": "CC(=O)N1CCC(NC(=O)NCC23CC4CC(CC(C4)C2)C3)CC1", "note": "[Compound 1-1, 1-(1-acetyl-piperidin-4-yl)-3-(1-adamantyl-methyl)-urea]", "% inh.": 87}, {"smiles": "O=C(Nc1ccc(C(F)(F)F)cc1)NC1CCN(c2ccc(C(F)(F)F)cn2)CC1", "note": "[Compound 2-1]", "% inh.": 13}, {"smiles": "O=C(Nc1ccc(C(F)(F)F)cc1)NC1CCN(c2ncccc2C(F)(F)F)CC1", "note": "[Compound 2-2]", "% inh.": 97}, {"smiles": "O=C(NC1CCN(c2ccccc2)CC1)NC12CC3CC(CC(C3)C1)C2", "note": "[Compound 2-3, 1-(1-adamantyl)-3-(1-phenylpiperidin-4-yl)urea]", "% inh.": 98}, {"smiles": "O=C(Nc1ccc(C(F)(F)F)cc1)NC1CCN(c2ccccc2)CC1", "note": "[Compound 2-5, 1-(1-phenylpiperidin-4-yl)-3-(4-(trifluoro-methyl)phenyl)urea]", "% inh.": 99}, {"smiles": "NC(=O)c1cccnc1N1CCC(NC(=O)Nc2ccc(C(F)(F)F)cc2)CC1", "note": "[Compound 2-6, 2-(4-(3-(4-(trifluoro-methyl)phenyl)ureido)-piperidin-1-yl)nicotinamide]", "% inh.": 60}, {"smiles": "NS(=O)(=O)c1ccc(C(=O)N2CCC(NC(=O)Nc3ccc(C(F)(F)F)cc3)CC2)cc1", "note": "[Compound 4-1, 4-(4-(3-(4-(trifluoromethyl)phenyl)ureido)piperidine-1-carbonyl)benzene-sulfonamide]", "% inh.": 90}, {"smiles": "NS(=O)(=O)c1ccc(C(=O)N2CCC(NC(=O)Nc3ccc(OC(F)(F)F)cc3)CC2)cc1", "note": "[Compound 4-2, 4-(4-(3-(4-(trifluoromethoxy)-phenyl)ureido)-piperidine-1-carbonyl)benzenesulfonamide]", "% inh.": 98}, {"smiles": "NS(=O)(=O)c1ccc(C(=O)N2CCC(NC(=O)NC34CC5CC(CC(C5)C3)C4)CC2)cc1", "note": "[Compound 4-3, 4-(4-(3-(1-adamantyl)ureido)-piperidine-1-carbonyl)benzene-sulfonamide]", "% inh.": 93}, {"smiles": "NS(=O)(=O)c1cccc(C(=O)N2CCC(NC(=O)NC34CC5CC(CC(C5)C3)C4)CC2)c1", "note": "[Compound 4-4, 3-(4-(3-(1-adamantyl)ureido)-piperidine-1-carbonyl)benzene-sulfonamide]", "% inh.": 93}, {"smiles": "CNS(=O)(=O)c1cccc(C(=O)N2CCC(NC(=O)NC34CC5CC(CC(C5)C3)C4)CC2)c1", "note": "[Compound 4-5, 3-(4-(3-(1-adamantyl)ureido)-piperidine-1-carbonyl)-N-methylbenzene-sulfonamide]", "% inh.": 99}, {"smiles": "NS(=O)(=O)c1cccc(C(=O)N2CCC(NC(=O)Nc3ccc(C(F)(F)F)cc3)CC2)c1", "note": "[Compound 4-6, 3-(4-(3-(4-(trifluoromethyl)phenyl)ureido)piperidine-1-carbonyl)benzene-sulfonamide]", "% inh.": 99}, {"smiles": "CNS(=O)(=O)c1ccc(C(=O)N2CCC(NC(=O)Nc3ccc(C(F)(F)F)cc3)CC2)cc1", "note": "[Compound 4-7, 4-(4-(3-(4-(trifluoromethyl)phenyl)ureido)piperidine-1-carbonyl)-N-methylbenzene-sulfonamide]", "% inh.": 92}]}, {"system": "soluble epoxide hydrolase (sEH)", "assay": "Fluorescent assay for soluble epoxide hydrolase (CMNPC substrate), percent inhibition at the recited concentration", "type": "biochemical", "conditions": "Inhibition Conc. 200 nM", "source_text": "as §1", "units": {"% inh.": "%"}, "values": [{"smiles": "CC(=O)N1CCC(NC(=O)NCc2ccc(C(F)(F)F)cc2)CC1", "note": "[Compound 1-3, 1-(1-acetylpiperidin-4-yl)-3-(4-(trifluoromethyl)benzyl)urea]", "% inh.": 93}, {"smiles": "CC(=O)N1CCC(NC(=O)NCCC(c2ccccc2)c2ccccc2)CC1", "note": "[Compound 1-7, 1-(1-acetypiperidin-4-yl)-3-(3,3-diphenylpropyl)urea]", "% inh.": 100}, {"smiles": "O=C(Nc1ccc(C(F)(F)F)cc1)NC1CCN(c2nccs2)CC1", "note": "[Compound 2-8, 1-(1-(thiazol-2-yl)piperidin-4-yl)-3-(4-(trifluoromethyl)phenyl)urea]", "% inh.": 98}, {"smiles": "CC(=O)N1CCC(NC(=O)NC23CC4CC(C2)C(=O)C(C4)C3)CC1", "note": "[Compound 3-9, 1-(1-acetylpiperidin-4-yl)-3-(4-oxoadamantyl)urea]", "% inh.": 42}, {"smiles": "CC(=O)N1CCC(NC(=O)NC23CC4CC(C2)C(F)(F)C(C4)C3)CC1", "note": "[Compound 3-10, 1-(1-acetylpiperidin-4-yl)-3-(4,4-difluoroadamantyl)urea]", "% inh.": 76}, {"smiles": "CC(=O)N1CCC(NC(=O)NC23CC4CC(C2)C(F)C(C4)C3)CC1", "note": "(stereo not shown) [Compound 3-11, 1-(1-acetylpiperidin-4-yl)-3-(4-fluoroadamantyl)urea]", "% inh.": 88}]}, {"system": "soluble epoxide hydrolase (sEH)", "assay": "Fluorescent assay for soluble epoxide hydrolase (CMNPC substrate), percent inhibition at the recited concentration", "type": "biochemical", "conditions": "Inhibition Conc. 500 nM", "source_text": "as §1", "units": {"% inh.": "%"}, "values": [{"smiles": "CC(=O)N1CCC(NC(=O)NCC2CCCCC2)CC1", "note": "[Compound 1-2, 1-(1-acetylpiperidin-4-yl)-3-(cyclo-hexylmethyl)urea]", "% inh.": 92}, {"smiles": "CC(=O)N1CCC(NC(=O)NCCCCCCCCO)CC1", "note": "[Compound 1-6, 1-(1-acetylpiperidin-4-yl)-3-(8-hydroxyoctyl)urea]", "% inh.": 85}, {"smiles": "O=C(Nc1ccc(C(F)(F)F)cc1)NC1CCN(c2ncccc2C(=O)O)CC1", "note": "[Compound 2-7]", "% inh.": 64}, {"smiles": "CC(=O)N1CCC(NC(=O)NC23CC4(F)CC(F)(CC(F)(C4)C2)C3)CC1", "note": "[Compound 3-1, 1-(1-acetylpiperidin-4-yl)-3-(3,5,7-trifluoroadamant-1-yl)urea]", "% inh.": 70}, {"smiles": "CC(=O)N1CCC(NC(=O)NC23CC4CC(F)(CC(F)(C4)C2)C3)CC1", "note": "[Compound 3-3, 1-(1-acetylpiperidin-4-yl)-3-(3,5-difluoroadamant-1-yl)urea]", "% inh.": 63}, {"smiles": "CC(=O)N1CCC(NC(=O)NC23CC4CC(CC(F)(C4)C2)C3)CC1", "note": "[Compound 3-4, 1-(1-acetylpiperidin-4-yl)-3-(3-fluoroadamant-1-yl)urea]", "% inh.": 82}]}, {"system": "soluble epoxide hydrolase (sEH)", "assay": "Fluorescent assay for soluble epoxide hydrolase (CMNPC substrate), percent inhibition at the recited concentration", "type": "biochemical", "conditions": "Inhibition Conc. 2000 nM", "source_text": "as §1", "units": {"% inh.": "%"}, "values": [{"smiles": "CC(=O)N1CCC(NC(=O)NCC2CCOCC2)CC1", "note": "[Compound 1-4, 1-(1-acetylpiperidin-4-yl)-3-((tetrahydro-2H-pyran-4-yl)methyl)urea]", "% inh.": 80}, {"smiles": "COc1ccc(CNC(=O)NC2CCN(C(C)=O)CC2)cc1OC", "note": "[Compound 1-5, 1-(1-acetylpiperidin-4-yl)-3-(3,4-dimethoxy-benzyl)urea]", "% inh.": 66}, {"smiles": "COC(=O)c1ccc(CNC(=O)NC2CCN(C(C)=O)CC2)cc1", "note": "[Compound 1-8, methyl 4-((3-(1-acetylpiperidin-4-yl)ureido)methyl)benzoate]", "% inh.": 95}, {"smiles": "O=C(Nc1ccc(OC(F)(F)F)cc1)NC1CCN(c2ccccc2)CC1", "note": "[Compound 2-9, 1-(1-phenylpiperidin-4-yl)-3-(4-(trifluoromethoxy)phenyl)urea]", "% inh.": 99}, {"smiles": "O=C(Nc1ccc(OC(F)(F)F)cc1)NC1CCN(c2ccc(F)cc2)CC1", "note": "[Compound 2-11, 1-(1-(4-fluorophenyl)piperidin-4-yl)-3-(4-(trifluoromethoxy)phenyl)urea]", "% inh.": 100}, {"smiles": "O=C(Nc1ccc(C(F)(F)F)cc1)NC1CCN(c2ccccc2F)CC1", "note": "[Compound 2-13, 1-(1-(2-fluorophenyl)piperidin-4-yl)-3-(4-(trifluoromethyl)phenyl)urea]", "% inh.": 18}]}, {"system": "soluble epoxide hydrolase (sEH)", "assay": "Fluorescent assay for soluble epoxide hydrolase (CMNPC substrate), percent inhibition at the recited concentration", "type": "biochemical", "conditions": "Inhibition Conc. 5000 nM", "source_text": "as §1", "units": {"% inh.": "%"}, "values": [{"smiles": "CC(=O)N1CCC(NC(=O)NC23CC4CC(C2)C(O)C(C4)C3)CC1", "note": "(single isomer, unassigned) [Compound 3-5, 1-(1-acetylpiperidin-4-yl)-3-(4-hydroxyadamant-1-yl)urea]", "% inh.": 87}, {"smiles": "CC(=O)N1CCC(NC(=O)NC23CC4CC(C2)C(O)C(C4)C3)CC1", "note": "(single isomer, unassigned) [Compound 3-7]", "% inh.": 81}, {"smiles": "CC(=O)N1CCC(NC(=O)NC23CC4CC(C2)C(O)C(C4)C3)CC1", "note": "(single isomer, unassigned) [Compound 3-8]", "% inh.": 76}, {"smiles": "O=C(NC1CCN(c2ccncc2)CC1)NC12CC3CC(CC(C3)C1)C2", "note": "[Compound 2-4, 1-(1-adamantyl)-3-(1-(pyridin-4-yl)piperidin-4-yl)urea]", "% inh.": 92}, {"smiles": "CC(=O)N1CCC(NC(=O)NC23CC4CC(CC(O)(C4)C2)C3)CC1", "note": "[Compound 3-2, 1-(1-acetylpiperidin-4-yl)-3-(3-hydroxyadamant-1-yl)urea]", "% inh.": 67}]}, {"system": "soluble epoxide hydrolase (sEH)", "assay": "Fluorescent assay for soluble epoxide hydrolase (CMNPC substrate), percent inhibition at the recited concentration", "type": "biochemical", "conditions": "Inhibition Conc. 50000 nM", "source_text": "as §1", "units": {"% inh.": "%"}, "values": [{"smiles": "CC(=O)N1CCC(NC(=O)NC23CC4CC(CC(C4)C2O)C3)CC1", "note": "(stereo not shown) [Compound 3-6, 1-(1-acetylpiperidin-4-yl)-3-(2-hydroxyadamant-1-yl)urea]", "% inh.": 94}]}]}
